Measurements reported in patent publication US20220162215A1, “COMPOSITIONS AND METHODS OF USING THE SAME FOR TREATMENT OF NEURODEGENERATIVE AND MITOCHONDRIAL DISEASE” (MITOKININ, INC., priority 2019, published 2022).
Entries after “also recorded” stand apart in the source; their conditions may differ. Read-outs that look alike come from different tables or passages of the source.

How the values were obtained:
[1] = test system: phospho-serine 129 synuclein (pS129); test: Preformed α-syn amyloid fibril (PFF) primary neuron model; format: cell-based, mice
Experimental: Briefly, primary hippocampal neurons were derived and cultured following standard protocols. At DIV-7, the cultures were treated with PFFs. At DIV-10, the cultures began treatment with a Mitokinin compound or vehicle controls, such treatment continuing for the duration of the experiment. The cultures were fixed and stained for alpha synuclein, TUJ1, and MAP2 at DIV-14, and analysis performed by unbiased imaging on an ImageXpress Confocal microscope and quantified by Molecular Devices' MetaXpress software.

dOTC = test: Ornithine carbamoyltransferase (dOTC) assay; format: cell-based
Excerpt: The expression of a deletion mutant of dOTC yields Triton X-100 insoluble protein aggregates in the mitochondrial matrix. This misfolded protein expression is capable of recruiting PINK1/Parkin to mitochondria without depolarizing the inner mitochondrial membrane. Thus, without wishing to be bound by theory, it may represent a more physiological mechanism of PINK1 stabilization.
Here, HeLa cells stably expressing YFP parkin, containing doxycycline inducible expression of dOTC, were obtained. The cells were seeded at 20000 cells/well plus doxycycline (1 μg/mL) plus MTK on a 96-well plate. On Day 3, the cells were fixed and permeabilized and bound with OTC antibody. DAPI and cell mask were added. There was no wash off of dox. The results were imaged at 40×, non-confocal. 85-600 cells were analyzed per well. Each condition had 1-3 wells.

[2] = In vivo summary, pharmacokinetics, rat
Experimental: Referring to Tables 8A-C below, an in vivo summary of EP-0035985 IV at 1 mg/kg (8A), PO 10 mg/kg (8B), and a tissue distribution, mouse (8C) is shown below.

pS129 α-synuclein = pS129 α-synuclein in human iPSC derived neurons; format: cell-based; conditions: FIG. 21
mitotoxicity = test: Mitotox safety margin (therapeutic window); format: cell-based
[3] = three days of treatment with DOX and 50 μM

With `FC(F)(F)c1cc2c(NC3CCCc4ccccc43)ncnc2[nH]1` (stereo not shown) [Compound 15] the EC50 ([1]; FIG. 22A, 22B, read-out: EC50 of decrease of pS129 synuclein increase driven by PFF addition) was 981 nM, the “pS129 synuclein in PINK1ko cell lines” value ([1]; PINK1ko, FIG. 22C) was “does not decrease pS129 synuclein in PINK1^ko cell lines” and the “dOTC proteins / delta OTC aggregates” value (dOTC; induced by doxycycline, FIG. 16, FIG. 20, listed as EP-0035985) was “able to reduce the accumulated dOTC proteins; also recorded: reduces delta OTC aggregates from mitochondria”. The OTC signal (dOTC; [3]) was “very effective at reducing OTC signal”, the cell counts (dOTC; [3]) was “cell counts were lower” and the AUCExtr ([2]; IV at 1 mg/kg, Table 8A) was 2.5%. For the same compound, the AUClast ([2]; IV at 1 mg/kg, Table 8A) was 837.5 ng·h/mL, the C0 ([2]; IV at 1 mg/kg, Table 8A) was 1667.7 ng/mL and the CL ([2]; IV at 1 mg/kg, Table 8A) was 19.5 mL/min/kg. For the same compound, the MRTlnf ([2]; IV at 1 mg/kg, Table 8A) was 2.0 h, the T1/2 ([2]; IV at 1 mg/kg, Table 8A) was 3.6 h and the Vss ([2]; IV at 1 mg/kg, Table 8A) was 2.4 L/kg. The Vz ([2]; IV at 1 mg/kg, Table 8A) was 6.0 L/kg, the AUClast ([2]; PO 10 mg/kg, Table 8B) was 692.4 ng·h/mL and the MRTlnf ([2]; PO 10 mg/kg, Table 8B) was 88.1 h. For the same compound, the Vss ([2]; PO 10 mg/kg, Table 8B) was 7.9 L/kg, the AUC ([2]; in vivo, IV at 1 mg/kg, Table 8A) was 838 ng·h/mL and the AUC ([2]; in vivo, PO 10 mg/kg, Table 8B) was 7350 ng·h/mL. For the same compound, the C0 ([2]; in vivo, PO 10 mg/kg, Table 8B, read-out: C0) was 2.6 ng/mL, the “pS129 α-synuclein” value (pS129 α-synuclein) was “significantly reduces pS129 α-synuclein” and the “Mitotox safety margin (Therapeutic window)” value (mitotoxicity; class of the Ratio) was “++++ (ratio 30<)”. For the same compound, the “Ratio**” value (mitotoxicity; highest concentration with no observable mitotoxicity (μM) divided by the EC50 (μM) of the compound) was 40.02.
